Test results as given in patent US10323018B2 (Millennium Pharmaceuticals, Inc., priority 2015, dated 2019).

Columns and labels:
PC3 cells = test: PC3 growth inhibition (Cell-titer glo, 72 hours); type: cell-based; details: Homo sapiens, PC-3, 72 h, read-out: Percent Viability, PC3 cells, compound concentration 1.667 μM, 72 hours
Outline: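 PC3 cells grown in RPMI1640 plated at 8×10^4 cells/ml, incubated overnight, then exposed to compound diluted in AIM serum-free medium for 72 h at 37 °C, 5% CO2. Luminescence by CellTiter-Glo relative to DMSO controls; % viability at single concentration, GI50 or LD50 from concentration-response curves.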

hNAMPT protein = hNAMPT protein (Homo sapiens (Human), UniProt P43490); test: NAMPT enzyme assay (TR-FRET/HTRF with BodiPY ligand); type: binding; details: for inhibition at 1 µM: NAMPT inhibition at compound concentration 1 μM; for IC50: NAMPT inhibition, IC50 range class
Sequence of hNAMPT protein (P43490 whole entry): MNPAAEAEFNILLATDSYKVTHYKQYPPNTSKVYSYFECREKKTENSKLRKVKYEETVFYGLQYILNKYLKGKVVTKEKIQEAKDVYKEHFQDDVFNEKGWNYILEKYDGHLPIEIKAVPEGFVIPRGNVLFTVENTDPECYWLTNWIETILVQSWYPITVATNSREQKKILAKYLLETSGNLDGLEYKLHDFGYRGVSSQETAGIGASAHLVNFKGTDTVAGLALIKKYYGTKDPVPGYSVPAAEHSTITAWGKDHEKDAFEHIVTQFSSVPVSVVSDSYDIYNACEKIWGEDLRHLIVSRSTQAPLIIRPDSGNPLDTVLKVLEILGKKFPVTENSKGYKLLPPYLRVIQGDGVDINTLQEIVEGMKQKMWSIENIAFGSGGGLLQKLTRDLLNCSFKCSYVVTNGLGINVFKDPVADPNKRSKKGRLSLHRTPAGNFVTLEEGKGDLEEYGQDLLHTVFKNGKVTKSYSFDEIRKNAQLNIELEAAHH
Outline: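 His-tagged hNAMPT with anti-6His-Tb, incubated with compound and BodiPY ligand for 1 h at rt in the dark, in Tris-HCl pH 7.5 buffer with DTT, NaCl, MgCl2 and Tween 20. TR-FRET measured with 320 nm excitation as the 520/486 nm emission ratio. IC50 fitted relative to DMSO controls.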

Compound | viability at 1.667 µM (PC3 cells) [%] | inhibition at 1 µM (hNAMPT protein; read-out: Percent Inhibition) [%] | IC50 (hNAMPT protein) [nM] | inhibition at 0.33 µM (hNAMPT protein; NAMPT inhibition at compound concentration 0.33 μM, read-out: Percent Inhibition) [%]
CCOc1cc(-c2ccc(F)cc2)nc2cc(C(=O)NCc3ccc4ncnn4c3)ccc12 [Compound I-84, 4-ethoxy-2-(4-fluorophenyl)-N-([1,2,4]triazolo[1,5-a]pyridin-6-ylmethyl)quinoline-7-carboxamide] | 1 | 99 | < 10 | –
CCOc1cc(-c2ccc(F)cc2OC)nc2cc(C(=O)NCCCc3cc[nH]n3)ccc12 [Compound I-128, 4-ethoxy-2-(4-fluoro-2-methoxyphenyl)-N-[3-(1H-pyrazol-3-yl)propyl]quinoline-7-carboxamide] | 2 | 96 | 10 to 50 | –
CCOc1c(F)c(-c2ccc(F)cc2)nc2cc(C(=O)NCCCc3nnc[nH]3)ccc12 [Compound I-78, 4-ethoxy-3-fluoro-2-(4-fluorophenyl)-N-[3-(4H-1,2,4-triazol-3-yl)propyl]quinoline-7-carboxamide] | 2 | 99 | < 10 | –
CCOc1cc(-c2ccc(C)nc2OC)nc2cc(C(=O)NCCCc3cnn[nH]3)ccc12 [Compound I-103, 4-ethoxy-2-(2-methoxy-6-methylpyridin-3-yl)-N-[3-(1H-1,2,3-triazol-5-yl)propyl]quinoline-7-carboxamide] | 2 | > 99 | 10 to 50 | –
CCOc1cc(-c2ccc(F)cc2)nc2cc(C(=O)NCCc3cn[nH]c3)ccc12 [Compound I-48, 4-ethoxy-2-(4-fluorophenyl)-N-[2-(1H-pyrazol-4-yl)ethyl]quinoline-7-carboxamide] | 4 | 97 | 10 to 50 | –
CCOc1cc(-c2ccc(OC)nc2)nc2cc(C(=O)NCc3nc4cnccc4[nH]3)ccc12 [Compound I-193, 4-ethoxy-N-(1H-imidazo[4,5-c]pyridin-2-ylmethyl)-2-(6-methoxypyridin-3-yl)quinoline-7-carboxamide] | 3 | > 99 | < 10 | –
CCOc1cc(-c2ccnc(C)c2)nc2cc(C(=O)NCCCc3nnc[nH]3)ccc12 [Compound I-202, 4-ethoxy-2-(2-methylpyridin-4-yl)-N-[3-(4H-1,2,4-triazol-3-yl)propyl]quinoline-7-carboxamide] | 1 | 98 | 10 to 50 | –
CCOc1cc(-c2ccc(F)cc2)nc2cc(C(=O)NCc3nc4ccccc4[nH]3)ccc12 [Compound I-54, N-(1H-benzimidazol-2-ylmethyl)-4-ethoxy-2-(4-fluorophenyl)quinoline-7-carboxamide] | 94 | – | < 10 | 96
CCOc1cc(-c2cc(F)ccc2OC)nc2cc(C(=O)NCc3nc4cnccc4n3C)ccc12 [Compound I-179, 4-ethoxy-2-(5-fluoro-2-methoxyphenyl)-N-[(1-methyl-1H-imidazo[4,5-c]pyridin-2-yl)methyl]quinoline-7-carboxamide] | 2 | 95 | 50 to 100 | –
CCOc1cc(-c2cncc(C)c2)nc2cc(C(=O)NCCCc3nnc[nH]3)ccc12 [Compound I-127, 4-ethoxy-2-(5-methylpyridin-3-yl)-N-[3-(4H-1,2,4-triazol-3-yl)propyl]quinoline-7-carboxamide] | 2 | 87 | 50 to 100 | –
CCOc1cc(-c2cnccc2OC)nc2cc(C(=O)NCCCc3nnc[nH]3)ccc12 [Compound I-212, 4-ethoxy-2-(4-methoxypyridin-3-yl)-N-[3-(4H-1,2,4-triazol-3-yl)propyl]quinoline-7-carboxamide] | 2 | 69 | > 100 | –
CCOc1cc(C2=CCOCC2)nc2cc(C(=O)NCCCc3nnc[nH]3)ccc12 [Compound I-140, 2-(3,6-dihydro-2H-pyran-4-yl)-4-ethoxy-N-[3-(4H-1,2,4-triazol-3-yl)propyl]quinoline-7-carboxamide] | 2 | 91 | 50 to 100 | –
CCOc1cc(-c2ccc(F)cc2)nc2cc(C(=O)NCCCc3ncc[nH]3)ccc12 [Compound I-15, 4-ethoxy-2-(4-fluorophenyl)-N-[3-(1H-imidazol-2-yl)propyl]quinoline-7-carboxamide] | 2 | > 99 | < 10 | –
CCOc1cc(-c2ccc(C)nc2OC)nc2cc(C(=O)NCCCc3ccn[nH]3)ccc12 [Compound I-104, 4-ethoxy-2-(2-methoxy-6-methylpyridin-3-yl)-N-[3-(1H-pyrazol-5-yl)propyl]quinoline-7-carboxamide] | 2 | 95 | 10 to 50 | –
CCOc1cc(-c2ccc(F)cc2)nc2cc(C(=O)NCCc3cnn[nH]3)ccc12 [Compound I-107, 4-ethoxy-2-(4-fluorophenyl)-N-[2-(1H-1,2,3-triazol-5-yl)ethyl]quinoline-7-carboxamide] | 2 | 99 | < 10 | –
CCOc1nc(-c2ccc(F)cc2)nc2cc(C(=O)NCc3ccc4nccn4c3)ccc12 [Compound I-34, 4-ethoxy-2-(4-fluorophenyl)-N-(imidazo[1,2-a]pyridin-6-ylmethyl)quinazoline-7-carboxamide] | 1 | 97 | < 10 | –
CCOc1cc(-c2ccnc(OC)c2)nc2cc(C(=O)NCc3nc4cnccc4[nH]3)ccc12 [Compound I-194, 4-ethoxy-N-(1H-imidazo[4,5-c]pyridin-2-ylmethyl)-2-(2-methoxypyridin-4-yl)quinoline-7-carboxamide] | 3 | 100 | < 10 | –
CCOc1cc(-c2ccnc(OC)c2)nc2cc(C(=O)NCCc3nnc[nH]3)ccc12 [Compound I-191, 4-ethoxy-2-(2-methoxypyridin-4-yl)-N-[2-(4H-1,2,4-triazol-3-yl)ethyl]quinoline-7-carboxamide] | 10 | 79 | > 100 | –
CCOc1cc(-c2cccnc2OC)nc2cc(C(=O)NCCc3cnn[nH]3)ccc12 [Compound I-190, 4-ethoxy-2-(2-methoxypyridin-3-yl)-N-[2-(1H-1,2,3-triazol-5-yl)ethyl]quinoline-7-carboxamide] | 5 | 94 | 50 to 100 | –
CCOc1cc(-c2ccc(F)cc2)nc2cc(C(=O)NCc3nc(N)n[nH]3)ccc12 [Compound I-141, N-[(3-amino-1H-1,2,4-triazol-5-yl)methyl]-4-ethoxy-2-(4-fluorophenyl)quinoline-7-carboxamide] | 9 | 82 | > 100 | –
CCOc1cc(-c2ccc(=O)n(C)c2)nc2cc(C(=O)NCCCc3cc[nH]n3)ccc12 [Compound I-123, 4-ethoxy-2-(1-methyl-6-oxo-1,6-dihydropyridin-3-yl)-N-[3-(1H-pyrazol-3-yl)propyl]quinoline-7-carboxamide] | 2 | > 99 | 10 to 50 | –
CCOc1cc(-c2ccc(F)cc2)nc2cc(C(=O)NCCn3cncn3)ccc12 [Compound I-55, 4-ethoxy-2-(4-fluorophenyl)-N-[2-(1H-1,2,4-triazol-1-yl)ethyl]quinoline-7-carboxamide] | 86 | 93 | 50 to 100 | –
CCOc1cc(-c2ccc(F)cc2)nc2cc(C(=O)NCCCc3cncn3C)ccc12 [Compound I-224, 4-ethoxy-2-(4-fluorophenyl)-N-[3-(1-methyl-1H-imidazol-5-yl)propyl]quinoline-7-carboxamide] | 2 | > 99 | < 10 | –
CCOc1cc(-c2ccnc(OC)c2)nc2cc(C(=O)NCc3ccn4ncnc4c3)ccc12 [Compound I-70, 4-ethoxy-2-(2-methoxypyridin-4-yl)-N-([1,2,4]triazolo[1,5-a]pyridin-7-ylmethyl)quinoline-7-carboxamide] | 1 | 99 | < 10 | –
CCOc1cc(-c2cc(OC)ncc2F)nc2cc(C(=O)NCCCc3ncc[nH]3)ccc12 [Compound I-12, 4-ethoxy-2-(5-fluoro-2-methoxypyridin-4-yl)-N-[3-(1H-imidazol-2-yl)propyl]quinoline-7-carboxamide] | 1 | > 99 | < 10 | –
CCOc1cc(-c2ccnc(C(F)(F)F)c2)nc2cc(C(=O)NCCCc3nnc[nH]3)ccc12 [Compound I-218, 4-ethoxy-N-[3-(4H-1,2,4-triazol-3-yl)propyl]-2-[2-(trifluoromethyl)pyridin-4-yl]quinoline-7-carboxamide] | 2 | 93 | 50 to 100 | –
CCOc1cc(-c2ccncc2C)nc2cc(C(=O)NCCCc3nnc[nH]3)ccc12 [Compound I-158, 4-ethoxy-2-(3-methylpyridin-4-yl)-N-[3-(4H-1,2,4-triazol-3-yl)propyl]quinoline-7-carboxamide] | 1 | 97 | 10 to 50 | –
CCc1nc(-c2ccc(Cl)s2)nc2cc(C(=O)NCCCc3ncc[nH]3)ccc12 [Compound I-22, 2-(5-chloro-2-thienyl)-4-ethyl-N-[3-(1H-imidazol-2-yl)propyl]quinazoline-7-carboxamide] | 1 | > 99 | 10 to 50 | –
